Reference: patent US20040074272A1, “Controlled release urea product and method of preparing said product” (priority 2001, published 2004)

Legend:
[1] = feeding trial in sheep fitted with rumen cannulae, rumen ammonia profile; format: in vivo
Procedure: Samples consisted of prilled urea-cement matrix coated with a primer of the type oxychloride cement followed by 3 or 4 layers of rosin and calcium carbonate.
The experiment was carried out with sheep fitted with rumen cannulae. Sheep were fed on a control diet of 63% grass hay and 37% of unmollassed sugarbeet pulp. Control diet was then supplemented with 1.3% urea (or urea equivalent in the is form of a controlled-release product) and added directly into the rumen to avoid excess chewing, which is known to be more intense in sheep compared to cattle. Data from the feeding trials are described in Table 4 and FIG. 3.

[2] = in vitro solubility assay of urea in water at 39° C.; format: physicochemical; settings: 50 mg urea in 50 ml water at 39° C.
Procedure: The coating layers consisted of rosin only or a combination of primer and rosin. […] Fifty mg urea was incubated in 50 ml water at 39° C. Samples (1 ml) were taken after 1, 2, 4 and 7.5 h incubation. Urea concentration was estimated by spectrophotometry.

Urea solubilized (%) ([2]; incubation time 1 h): 98.9%
Urea solubilized (%) ([2]; incubation time 2 h): 100.1%
Urea solubilized (%) ([2]; incubation time 4 h): 99.3%
Urea solubilized (%) ([2]; incubation time 7.5 h): 100.6%
Compound: NC(N)=O [Urea, urea]
Rumen ammonia ([1]; 0 h after feeding, diet supplemented with 1.3% urea or urea equivalent, added directly into the rumen): 8.8 mg N/100 ml
Rumen ammonia ([1]; 1 h after feeding, 1.3% urea or urea equivalent into the rumen): 33.3 mg N/100 ml
Rumen ammonia ([1]; 2 h after feeding, 1.3% urea or urea equivalent into the rumen): 25.0 mg N/100 ml
Rumen ammonia ([1]; 4 h after feeding, 1.3% urea or urea equivalent into the rumen): 10.7 mg N/100 ml
Rumen ammonia ([1]; 8 h after feeding, 1.3% urea or urea equivalent into the rumen): 6.6 mg N/100 ml
Rumen ammonia ([1]; 12 h after feeding, 1.3% urea or urea equivalent into the rumen): 9.0 mg N/100 ml
